Experimental findings from patent publication US6953786B2, “Compositions comprising plant-derived polyphenolic compounds and inhibitors of reactive oxygen species and methods of using thereof” (The Regents of the University of California, priority 2002, dated 2005) are described below.

Marks after values point to notes of the source that are not given here.

The subject of one assay is Mia PACA-2. In words: Pancreatic cancer growth assay in nude mouse model. The class given is in vivo. The procedure: To determine the effect of a polyphenolic compound on pancreatic cancer cell growth, the following assay using a nude mouse model was conducted. Specifically, the effect of quercetin was tested in a nude mouse model of pancreatic cancer using the highly malignant pancreatic cancer cell line, Mia PACA-2.
Tumor induction in nude mice was performed as described by Hotz HC, et al. (2001) Pancreas 22:113-121, which is herein incorporated by reference. For subcutaneous tumor formation, 1×10^7 Mia PACA-2 tumor cells were subcutaneously injected in the medio-dorsal region of a nude mouse. After 4 weeks a small tumor fragment, about 1 mm in diameter, was removed from the subcutaneous tumor and transplanted into the pancreatic tail of mice of two study groups. Ten days after tumor transplantation, treatment with or without quercetin was initiated. The treated animals received daily intraperitoneal injections of 1.3 mg quercetin dissolved in DMSO; the control group received DMSO only by intraperitoneal injection. The animals were sacrificed once clinical tumor signs including severe cachexia ascites with abdominal distension or heavy tumor burden, larger than 1.5 cm, became apparent. Tumor volume was calculated as described by Hotz H C, et al. (2001) as 0.5×length×width×depth. Metastatic tumor spread was determined macroscopically at autopsy in all thoracic, abdominal, retroperitoneal and pelvic organs. All macroscopic suspicious lesions were further confirmed as tumor dissemination by microscopic analysis. Each value in the metastatic score represented a different organ of metastatic tumor spread.

The next assay concerns PARP. In words: PARP proteolysis (Western blot). The class given is cell-based, human. The settings on record: Mia PACA-2, 24 hours, 100 μM. Here is the method:
BSp73AS cells were cultured for 6 hours and Mia PACA-2 cells were cultured for 24 hours in the presence or absence of 100 μM of each rutin, quercetin or trans-resveratrol and with or without 50 μM of each […]. The cells were washed twice with PBS and lysed by incubating for 20 minutes at 4° C. in lysis buffer comprising 0.15 M NaCl, 50 mM Tris (pH 7.2), 1% deoxycholic acid (wt/vol), 1% Triton X-100 (wt/vol), 0.1% […] (wt/vol) and 1 mM PMSF, as well as 5 μg/ml each of protease inhibitors, pepstatin, leupeptin, chymostatin, antipain, and aprotinin. Then the cell lysates were centrifuged for 20 minutes at 15,000 g at 4° C. The supernatants were separated by 4-20% SDS-PAGE for 2 hours at 120 V using precast Tris-glycine gels and a Mini-Cell gel apparatus (Novex, San Diego, Calif.). Separated proteins were electrophoretically transferred to a nitrocellulose membrane for 2 hours at 30 V using a Novex Blot Module (Novex, San Diego, Calif.). Nonspecific binding was blocked by 1 hour incubation of nitrocellulose membranes in 5% (wt/vol) nonfat dry milk in Tris-buffered saline (TBS; pH 7.5). Blots were then incubated overnight at 4° C. with rabbit polyclonal antibody against poly (ADP-ribose) polymerase (PARP) (Santa Cruz Biotechnology, Santa Cruz, Calif.) (1;3,000) in an antibody buffer comprising (1% (wt/vol) non-fat dry milk in TTBS (0.05% vol/vol) Tween-20 in TBS), washed 3 times with TTBS and finally incubated for 1 hour with a peroxidase-labeled secondary antibody in the antibody buffer. Blots were developed for visualization using ECL detection kit. To test for equal protein loading, the blots were stripped and re-probed with an antibody against tubulin. When processing of a protein was measured, a decrease in unprocessed full-length form was measured concomitantly with the increase in the cleaved, active form. The experiment was repeated 3 times with similar results.
(In western blotting, separated proteins are transferred to a membrane and probed.)

The next assay has as its system caspase-3. The experiment in a line: Caspase-3 (DEVDase) activity, fluorogenic assay with DEVD-AMC. The class given is cell-based, human. To be noted: Mia PACA-2, up to 24 hours, 100 μM, no serum (FIG. 7B).
The next assay concerns NF-κB. In words: NF-κB DNA binding activity (EMSA). The class given is cell-based, rat. To be noted: BSp73AS, 6 hours; polyphenols 100 μM, MG-132 20 μM. The procedure: In order to determine the role of activated NF-κB in the regulation of apoptosis caused by the polyphenolic compound, the following assay was conducted. BSp73AS cells were cultured for 6 hours and Mia PACA-2 cells were cultured in the absence of serum or growth factors for 24 hours in the absence (controls) or presence of rutin, quercetin, trans-resveratrol, or genistein, each at 100 μM and 20 μM proteosome inhibitor MG-132. Nuclear proteins were isolated and analyzed for NF-κB DNA binding activity with electrophoretic mobility shift assay (EMSA). Specifically, aliquots of nuclear extracts with equal amount of protein, about 2 to about 10 μg, were mixed in 20 μl reactions with a buffer comprising 10 mM HEPES (pH 7.6), 50 mM KCl, 0.1 mM EDTA, 1 mM DTT, 10% (vol/vol) glycerol and 3 μg poly[d (I-C)]. After aliquots were equilibrated on ice for 5 minutes, binding reactions were stared by addition of 20-60,000 counts/min (20 fM) of ^32P-labeled DNA probes and allowed to proceed for 25-30 minutes at room temperature or up to 1 hour on ice. The oligonucleotide probe containing the κB binding motif (underlined) was annealed to the complementary oligonucleotide with a 5′-G overhang and end-labeled using Klenow DNA polymerase I. The samples were electrophoresed at room temperature in 0.5×TBE buffer (1×TBE 89 mM Tris base, 89 mM boric acid and 2 mM EDTA) on nondenaturing 4.5% polyacrylamide gel at 200 V. Gels were dried and directly analyzed in the PhosphorImager (Molecular Dynamics, Sunnyvale, Calif.). The experiment was repeated twice.
For orientation: A gel shift assay detects complexes by their altered migration in electrophoresis.

[1] abbreviates: nude mice with Mia PACA-2 tumor in pancreatic tail, daily i.p. 1.3 mg quercetin, means ± SE, n=8.

Method for caspase-3: To determine whether a polyphenolic compound activates caspase-3 activity in a time-dependent manner, the following assay was conducted. BSp73AS cells were cultured for 0, 1, 3, and 6 hours and Mia PACA-2 cells were cultured in the absence of serum or growth factors for 0, 1, 4, 6, and 24 hours in the presence of 100 μM or quercetin, trans-resveratrol, rutin, or control. Caspase-3 activity was measured in cell lysates with a fluorogenic assay using DEVD-AMC as a substrate. The results were normalized to the DEVDase activity in untreated cells.
To determine the role of caspases in the effects of combinations of agents on apoptosis, the effects of caspase-3 activity (DEVDase activity) as well as the effect of the broad spectrum caspase inhibitor, Z-VAD, on apoptosis was measured. Specifically, Mia PACA-2 cells were cultured for 72 hours in the presence of serum with or without 100 μM Z-VAD, 15 μM DPI, 100 μM trans-resveratrol, 100 μM genistein, a combination of trans-resveratrol and DPI, and a combination of genistein and DPI. DEVDase activity was measured in whole cell lysates with a fluorimetric assay.
A fluorimetric assay for caspase-3 activity was conducted. […] Cytosolic protein extracts (supernatants) were collected, protein concentrations were determined and the extracts were aliquoted and stored at −80° C. […] The reaction was started by addition of caspase-3 substrate, the readings were taken at 0, 60, 90, and 120 minutes. Fluorescence was calibrated using a standard curve for AMC. The data were expressed as mol AMC/mg protein/min.
Mia PACA-2 cells were cultured in the absence of serum or growth factors for 24 hours in the presence or absence of quercetin (100 μM), trans-resveratrol (100 μM), Z-VAD FMK (50 μM), cyclosporin A (5 μM) and/or aristolochic acid (50 μM). […] The reaction was started by addition of caspase-3 substrate, the readings were taken at 0, 60, 90, and 120 minutes. Fluorescence was calibrated using a standard curve for AMC. […] The data were expressed as mol AMC/mg protein/min. […]

For the compound `O=c1c(-c2ccc(O)cc2)coc2cc(O)cc(O)c12` [genistein], in the assay with Mia PACA-2, the “growth of pancreatic cancer in a nude mouse model” value is on record as “inhibition of growth”.

As to `Oc1ccc(/C=C/c2cc(O)cc(O)c2)cc1` [trans-resveratrol], the PARP cleavage entry in the assay on PARP is “cleaved to its activated form”. In addition, the caspase-3 activation result in the assay on caspase-3 is “caused caspase-3 activation”. Moreover, the “NF-κB activation (DNA binding)” value in the assay with NF-κB was “inhibit NF-κB activation”.

On to `O=c1c(O)c(-c2ccc(O)c(O)c2)oc2cc(O)cc(O)c12` [quercetin], for which the PARP cleavage entry in the assay with PARP is on record as “cleaved to its activated form”. The caspase-3 activation entry in the assay with caspase-3 is given as “caused caspase-3 activation”. Also, the “NF-κB activation (DNA binding)” value in the assay with NF-κB was “inhibit NF-κB activation”. For the same compound, in the assay on Mia PACA-2 (setting [1]), the “Number of metastatic sites (organs with metastatic lesions)” value amounted to 0.6 and the “Tumor volume, cm^3” value was 1.56 ± 0.27* cm^3. Also, the “Number of metastatic sites (organs with metastatic lesions)” value with Mia PACA-2 (nude mice with Mia PACA-2 tumor in pancreatic tail, daily i.p. 1.3 mg quercetin, means ± SE, n=8, listed as Quercetin) is on record as 0.62 ± 0.26. Further, the “Survival” value in the assay with Mia PACA-2 (nude mice with Mia PACA-2 tumor transplanted into pancreatic tail, daily intraperitoneal 1.3 mg quercetin in DMSO, means ± SE, n=8, days after transplantation until animal appeared ill from abdominal distension) came out at 75.00 ± 2.50 days. Further, the “growth of pancreatic cancer in a nude mouse model” value in the assay with Mia PACA-2 is reported as “inhibition of growth”.
